The nature of test [1]: phenyl-p-benzoquinone writhing assay (analgesic activity). The following applies: Mus musculus, sc, mice; for inhibition in vivo at 20 mg/kg: s.c., read-out: % Inhibition of writhing at a screening dose of 20 mg/kg, s.c. The class given is in vivo, male mice (Charles River, CD-1). Here is the method:
The compounds of this invention are useful as analgesic agents due to their ability to alleviate pain in mammals. The procedure employed to determine analgetic utility is a modification of the phenyl-p-benzoquinone writhing assay in mice, a standard assay for analgesia [Proc. Soc. Exptl. Bio. Med., 95, 729 (1957)]. Pursuant to the modified procedure phenyl-p-benzoquinone (Eastman, 12.5 mg) is dissolved in 5 ml of 95% ethanol and the solution is diluted to a total volume of 100 ml with distilled water. The solution is administered to the subject mice intraperitoneally at a dose of 10 ml per kg of body weight. A characteristic "writhe"an inward rotation of one or more feet with twisting and turning of the trunk, drawing in of the abdominal wall, lordosis and arching of the back, is produced.
A total of 28 male mice (Charles River, CD-1), weighing 18 to 30 grams, are employed for a time response. The subject animals receive food and water ad libitum. Test compounds are dissolved in distilled water, or suspended in distilled water containing one drop of a suitable surfactant, such as Tween-80.
Four groups of five animals (20 animals) are given the test compound subcutaneously (s.c.) or orally (p.o.) at 15, 30, 45 and 60 minutes prior to administration of the phenyl-p-quinone. A control group (2 animals per group) receive an equal volume of the vehicle. After the administration of the phenyl-p-quinone, the mice are place separately in one liter beakers, and after five minutes, are observed for ten minutes. The number of writhes for each animal is recorded. The following formula is used to compute the percent inhibition: [formula]
The time period with the greatest percent of inhibition is considered the peak time.

Test [2] is described as follows: L-5-hydroxytryptophan (5-HTP) potentiation assay, antidepressant activity. Type of test: in vivo, male Wistar rats. The following applies: Rattus norvegicus, ip, read-out: 5-HTP Potentiation ED50. Here is the method: The compounds of this invention are also useful as antidepressants by virtue of their ability to elicit an antidepressant response in mammals. Antidepressant activity is determined by the L-5-hydroxytryptophan potentiation assay in rats described in Brit. J. Pharmacol., 20, pp. 106-120 (1963) and J. Med. Chem., 24, 74 (1980).
Groups of six male Wistar rats (150-200 grams each) are used in this assay. Pursuant to this procedure pargyline hydrochloride is prepared and administered four hours before testing by subcutaneous injection at 75 mg/kg in 1% saline and at dosage volume of 1.0 ml/kg. Thirty minutes before testing, drugs are prepared and dosed using distilled water and, if insoluble, a suitable surfactant is added. Control groups receive vehicle. Drugs are routinely administered intraperitoneally at a dosage volume of 10 ml/kg. L-5-hydroxytryptophan (5-HTP) is prepared at 1.0 mg/kg in distilled water and is administered intraperioneally in volumes proportional to 10 ml/kg. Drugs are administered in a randomized manner and 15 minutes post 5-HTP treatment, the animals are observed for 15 minutes.
Potentiation is expressed as normalized percent potentiation relative to vehicle control.

A short description of test [3]: supramaximal electroshock (SES) assay, anticonvulsant activity. The class given is in vivo, male mice (Charles River, CD-1). The following applies: Mus musculus, ip, mice. Here is the method: (§1) The compounds of this invention are also useful as anticonvulsants due to their anticonvulsant activity in mammals. Anticonvulsant activity is measured in male mice using the supramaximal electroshock (SES) assay described in Arch. Int. Pharmacodyn. 92, pp. 97-107, (1952) and the metrazol lethality assay (MTZ) described in J. Pharmacol. Exp. Ther., 81, 402 (1944).
Groups of male mice (Charles River, CD-1) weighing 18 to 30 g are employed in the SES assay. Test compounds are dissolved in distilled water, or if insoluble, suspended in water containing one drop of a surfactant, such as Tween-80. Test compounds are generally administered intraperitoneally at a dose of 10 ml of solution, or suspension, per kg of animal body weight. The output terminals of an A.C. shocker, which delivers 206 volts rms for 300 msec, are placed across the animals' eyes, an electrode paste coating assuring contact of the terminals with the eyes. The test compound is administered and thereafter the subject animals are shocked.
Protection is expressed as normalized percent inhibition relative to vehicle control. [formula] A time response is carried out using 6 animals per group. Animals are tested at 30, 60 and 120 minutes post drug. Additional time periods are tested if indicated by previous tests. A dose range determination is generally reserved for those compounds which inhibit convulsions by greater than about 45-55% at the screening dose employed at the time the test was performed. When the peak activity time has been determined, a dose response is initiated, using 10 animals per group at that time period.
The anticonvulsant activity of several of the compounds of this invention as per the SES and MTZ assay procedures is provided in Table 2.

Test [4] is described as follows: Metrazol lethality assay (MTZ), anticonvulsant activity. The class given is in vivo, male mice (Charles River, CD-1). The settings on record: Mus musculus, po, mice, protection against Metrazol lethality. Here is the method:
as §1
Groups of male mice (Charles River, CD-1), weighing 18 to 30 grams are employed in the Metrazol lethality assay. Test compounds are dissolved in distilled water or if insoluble, suspended in water, to which a surfactant, such as Tween-80 is added. The test compounds are administered orally, the administered dose being dissolved or suspended in 10 ml of solution or suspension per kg of animal body weight. Control animals (2 mice/group) receive water or water and Tween-80, i.e., the vehicle for administration of the test compound. Metrazol (pentylenetetrazol) is dissolved in water (concentration 225 mg of Metrazol/10 ml of solution), and the solution is administered subcutaneously to groups of five animals each at one or more time intervals of 15, 30, 60, 90, or 120 minutes after administration of the test compound. The number of animal alive 15 minutes after treatment with Metrazol is determined and recorded. The following formula is employed to calculate the percent protection against Metrazol lethality. [formula] […]

Test [5] is described as follows: antihypertensive activity, indirect tail cuff method (SHR). The class given is in vivo, spontaneous hypertensive rat. The following applies: treated three days, drop measured on third day, decrease in mean arterial blood pressure. Here is the method:
The compounds of this invention are also useful as antihypertensive agents due to their ability to depress blood pressure in mammals. Antihypertensive activity is measured in the spontaneous hypertensive rat by the indirect tail cuff method described in "Methods in Pharmacology", A. Schwartz, Ed., Vol. I, Appleton-Century Crofts, New York, N.Y., 1971, p. 135. In this procedure a group of five animals is treated orally for three days with the test compound in relation to a control group of the same number. The drop in blood pressure is measured on the third day following administration. The antihypertensive activities of representative compounds, expressed as a decrease in mean arterial blood pressure (in mm Hg), are given in Table 3 along with the activity of a standard compound.

Consider 21 compounds from patent US4861889A, “3-(2,3,4,5,6-pentafluorophenoxy)-8-azabicyclo[3.2.1]octanes” (Hoechst-Roussel Pharmaceuticals, Inc., priority 1988, dated 1989).

Where a name gives a salt, the structure may show the parent alone.

`Cc1[nH]c2ccccc2c1CCCN1[C@@H]2CC[C@H]1C[C@@H](Oc1c(F)c(F)c(F)c(F)c1F)C2` [(ENDO)-3-(2,3,4,5,6-PENTAFLUOROPHENOXY)-8-[3-(2-METHYLINDOL-3-YL)PROPYL]-8- AZABICYCLO[3.2.1]OCTANEHYDROCHLORIDE]: in test [1], the inhibition in vivo at 20 mg/kg was 39%.

As to `COc1cc2onc(CCCN3[C@@H]4CC[C@H]3C[C@@H](Oc3c(F)c(F)c(F)c(F)c3F)C4)c2cc1OC` [(ENDO)-3-(2,3,4,5,6-PENTAFLUOROPHENOXY)-8-[(5,6-DIMETHOXY-1,2-BENZISOXAZOL- 3-YL)PROPYL]-8-AZABICYCLO[3.2.1]OCTANEHYDROCHLORIDE], the inhibition in vivo at 20 mg/kg in test [1] was 37%. Besides, the ED50 in test [2] was found to be 21.1 mg/kg.

For `Fc1ccc2c(CCCN3[C@@H]4CC[C@H]3C[C@@H](Oc3c(F)c(F)c(F)c(F)c3F)C4)noc2c1` [(ENDO)-8-[3-(6-FLUORO-1,2-BENZISOXAZOL-3-YL)PROPYL]-3-(2,3,4,5,6-PENTAFLUOROPHENOXY)-8-AZABICYCLO[3.2.1OCTANE HYDROCHLORIDE], the inhibition in vivo at 20 mg/kg in test [1] was 45%.

With `Cc1[nH]c2ccccc2c1CCCN1[C@@H]2CC[C@H]1C[C@H](Oc1c(F)c(F)c(F)c(F)c1F)C2` [(EXO)-3-(2,3,4,5,6-PENTAFLUOROPHENOXY)-8-[3-(2-METHYLINDOL-3-YL)PROPYL]-8-AZABICYCLO[3.2.1]OCTANE HYDROCHLORIDE], the inhibition in vivo at 20 mg/kg in test [1] stood at 42%.

With `COc1ccccc1N1CCN(CCCN2[C@@H]3CC[C@H]2C[C@@H](Oc2c(F)c(F)c(F)c(F)c2F)C3)CC1` [(endo)-3-(2,3,4,5,6-pentafluorophenoxy)-8-[3-[4-(2-methoxyphenyl)piperazin-1-yl]propyl]-8-azabicyclo[3.2.1]octane], in test [1], the inhibition in vivo at 20 mg/kg turned out to be 55%.

On to `CP(C)(=O)CN1[C@@H]2CC[C@H]1C[C@@H](Oc1c(F)c(F)c(F)c(F)c1F)C2` [(endo)-3-(2,3,4,5,6-pentafluorophenoxy)-8-[(dimethylphosphinyl)methyl]-8-azabicyclo[3.2.1]octane], for which, in test [2], the median effective dose (ED50) was determined as 10.8 mg/kg.

Take `Fc1c(F)c(F)c(O[C@H]2C[C@H]3CC[C@@H](C2)N3)c(F)c1F` [(endo)-3-(2,3,4,5,6-pentafluorophenoxy)-8-azabicyclo[3.2.1]octane hydrochloride]: in test [2], the ED50 worked out at 15.6 mg/kg.

Turning to `CN1[C@@H]2CC[C@H]1C[C@](Oc1c(F)c(F)c(F)c(F)c1F)(c1ccccc1)C2` [(endo)-3-(2,3,4,5,6-pentafluorophenoxy)-8-methyl-3-phenyl-8-azabicyclo[3.2.1]octane hydrochloride], the inhibition in vivo at 20 mg/kg in test [1] amounted to 42%.

Turning to `CN1[C@@H]2CC[C@H]1C[C@@H](Oc1c(F)c(F)c(F)c(F)c1F)C2` [(endo)-3-(2,3,4,5,6-pentafluorophenoxy)-8-methyl-8-azabicyclo[3.2.1]octane], the 50% effective dose (ED50) in test [2] amounted to 16.2 mg/kg.

As to `NC(=O)N1[C@@H]2CC[C@H]1C[C@@H](Oc1c(F)c(F)c(F)c(F)c1F)C2` [(endo)-8-aminocarbonyl-3-(2,3,4,5,6-pentafluorophenoxy)-8-azabicyclo[3.2.1]octane], the inhibition in vivo at 20 mg/kg in test [1] was determined as 38%. Also, the ED50 in test [3] stood at 25.2 mg/kg; in test [4] it was 12.7 mg/kg.

As to `CN(C)C(=O)N1[C@@H]2CC[C@H]1C[C@H](Oc1c(F)c(F)c(F)c(F)c1F)C2` [(exo)-3-(2,3,4,5,6-pentafluorophenoxy)-8-[(N,N-dimethylamino)carbonyl]-8-azabicyclo[3.2.1]octane], the inhibition in vivo at 20 mg/kg in test [1] is 39%.

Consider `Fc1c(F)c(F)c(O[C@@H]2C[C@H]3CC[C@@H](C2)N3)c(F)c1F` [(exo)-3-(2,3,4,5,6-pentafluorophenoxy)-8-azabicyclo[3.2.1]octane], for which the ED50 in test [2] worked out at 8.4 mg/kg.

Turning to `NC(=O)N1[C@@H]2CC[C@H]1C[C@H](Oc1c(F)c(F)c(F)c(F)c1F)C2` [(exo)-8-(aminocarbonyl)-3-(2,3,4,5,6-pentafluorophenoxy)-8-azabicyclo[3.2.1]octane], the inhibition in vivo at 20 mg/kg in test [1] was determined as 32%.

Regarding `CC(=O)N1[C@@H]2CC[C@H]1C[C@H](Oc1c(F)c(F)c(F)c(F)c1F)C2` [(exo)-8-acetyl-3-(2,3,4,5,6-pentafluorophenoxy)-8-azabicyclo[3.2.1]octane], the ED50 in test [4] is 41.9 mg/kg.

`CC(=O)Oc1ccccc1C(=O)O` [Asprin, reference compound]: the ED50 in test [1] (column head s.c., read-out: ED50 (calculated dosage at which a 50% inhibition of writhing is achieved)) is 32.8 mg/kg.

Consider `CN(C)CCC=C1c2ccccc2CCc2ccccc21` [amitriptyline, reference compound], for which the ED50 in test [2] (rats) is 7.1 mg/kg.

Take `CN1[C@@H]2CC[C@H]1C[C@@H](Oc1c(F)c(F)c(F)c(F)c1F)C2` [endo-3-(2,3,4,5,6-pentafluorophenoxy)-8-methyl-8-azabicyclo[3.2.1]octane oxalate]: in test [1], the inhibition in vivo at 20 mg/kg was found to be 49%.

In the case of `CC(=O)N1[C@@H]2CC[C@H]1C[C@@H](Oc1c(F)c(F)c(F)c(F)c1F)C2` [endo-8-acetyl-3-(2,3,4,5,6-pentafluorophenoxy)-8-azabicyclo[3.2.1]octane], the ED50 in test [3] was 35.1 mg/kg.

Turning to `CN1[C@@H]2CC[C@H]1C[C@H](Oc1c(F)c(F)c(F)c(F)c1F)C2` [exo-3-(2,3,4,5,6-pentafluorophenoxy)-8-methyl-8-azabicyclo[3.2.1]octane hydrochloride], in test [1], the inhibition in vivo at 20 mg/kg was 43%. In addition, the ED50 in test [2] was 13.4 mg/kg.

Regarding `N=C(N)NCCN1CCCCCCC1` [guanethidine, reference compound], the “mm dec. in BP at 50 mg/kg p.o.” value in test [5] turned out to be 20 mm.

With `CCC1(c2ccccc2)C(=O)NC(=O)NC1=O` [phenobarbital, reference compound], in test [3], the ED50 is 8.4 mg/kg.
